In PubChem BioAssay (NCI):
Several values for one entry are separate records, joined by “and”; a condition that tells them apart may be missing. Equal entries are not always repeated.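 Step 1: Grow cells in 96-well plates. Step 2: Expose to compound for 48 hours at 5 concentrations. Step 3: Interpolate endpoints linearly; if unreached, use highest concentration. Here, GI50 denotes the concentration required for 50% inhibition of growth. TGI marks complete inhibition of growth.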

Tests used:
Experiment in all cases: inhibition of tumour cell growth, NCI panel, 48 h
OVCAR-8 ovarian = test system: OVCAR-8 ovarian
IGROV1 ovarian = test system: IGROV1 ovarian
TK-10 renal = test system: TK-10 renal
KM12 colon = test system: KM12 colon
PC-3 prostate = test system: PC-3 prostate
RXF 393 renal = test system: RXF 393 renal
MALME-3M melanoma = test system: MALME-3M melanoma
SN12C renal = test system: SN12C renal
MDA-N = test system: MDA-N
MCF7 breast = test system: MCF7 breast

Row | SMILES | TGI (OVCAR-8 ovarian) [µM] | TGI (IGROV1 ovarian) [µM] | TGI (TK-10 renal) | TGI (KM12 colon) [µM] | TGI (PC-3 prostate) [µM] | TGI (RXF 393 renal) [µM] | TGI (MALME-3M melanoma) | TGI (SN12C renal) | TGI (MDA-N) [µM] | TGI (MCF7 breast) [µM] | GI50 (MCF7 breast) [µM] | GI50 (OVCAR-8 ovarian) [µM] | GI50 (IGROV1 ovarian) [µM] | GI50 (TK-10 renal) [µM] | GI50 (PC-3 prostate) [µM] | GI50 (MALME-3M melanoma) [µM] | GI50 (SN12C renal) [µM] | GI50 (KM12 colon) [µM] | GI50 (RXF 393 renal) [µM]
1 | CN1C/C(=C\c2ccc(Cl)cc2)C(=O)/C(=C/c2ccc(Cl)cc2)C1 | 0.605 | > 100 | > 100 µM | 2.39 | > 100 | 1.22 | > 100 µM | > 100 µM | 8.86 | – | – | – | – | – | – | – | – | – | –
2 | Oc1ccc2c(c1)CC[N+]1=C2CCC2CCCC21 (configuration not stated) | > 100 | > 100 | > 100 µM | – | – | > 100 | – | > 100 µM | – | – | – | – | – | – | – | – | – | – | –
3 | CCOC(=O)CCc1c(C(=O)OCC)[nH]c(/C=C2\NC(=O)C(C)=C2CC)c1C | 18.9 | 23.7 | – | > 100 | 63.3 | 49 | 41.1 µM | > 100 µM | – | > 100 | – | – | – | – | – | – | – | – | –
4 | Cn1c(-c2ccc[se]2)ccc1-c1ccc(CO)[se]1 | > 100 | – | – | > 100 | > 100 | 6.26 | 40.4 µM | > 100 µM | > 60.5 | > 100 | – | – | – | – | – | – | – | – | –
5 | Cc1cn(CC2=NCCCN2)c(=O)[nH]c1=O | > 100 | > 100 | > 100 µM | – | > 100 | > 100 | > 100 µM | > 100 µM | > 100 | > 100 | – | – | – | – | – | – | – | – | –
6 | C[C@H](CC[C@@H](O)C(C)(C)O)[C@H]1CC[C@@]2(C)[C@@H]3CC=C4[C@@H](CC[C@H](O)C4(C)C)[C@]3(C)C(=O)C[C@]12C | > 50 | > 50 | > 50 µM | 49.2 | 45.4 | – | > 50 µM | > 50 µM | > 50 | > 50 | – | – | – | – | – | – | – | – | –
7 | O=C(NC1(C(=O)NNc2nnc(-c3ccccc3)c(-c3ccccc3)n2)C(c2ccccc2)C(c2ccccc2)=NN1c1ccccc1)c1ccccc1 (configuration not stated) | > 100 | – | > 100 µM | > 100 | > 100 | > 100 | > 100 µM | – | – | – | – | – | – | – | – | – | – | – | –
8 | C=C(CC(=O)Nc1ccc(C(=O)OC)o1)C(=O)OC | > 100 | 55.5 | 46.1 µM | 42.5 | 58.9 | 33.3 | 39.3 µM | 45.2 µM | – | 54 | – | – | – | – | – | – | – | – | –
9 | CCOC(=O)c1c2c(n3ccc(NC(=O)OC(C)(C)C)cc13)C(=O)c1ncccc1C2=O | 2.09 | 2.28 | 3.39 µM | – | 2.05 | – | 1.27 µM | 1.21 µM | – | 0.202 | 0.0174 | 0.148 | 0.152 | 0.132 | 0.25 | 0.0997 | 0.071 | – | –
10 | NC(c1ccccc1)(C(F)(F)F)P1(=O)OC(=O)c2ccccc2O1 (configuration not stated) | > 100 | > 100 | > 100 µM | > 100 | > 100 | > 100 | – | > 100 µM | > 100 | > 100 | – | – | – | – | – | – | – | – | –
11 | CCN(CC)C(=S)N/N=C/c1ccccn1 | – | 11.7 | – | > 100 | > 100 | – | > 100 µM | – | > 100 | 26 | – | – | – | – | – | – | – | – | –
12 | O=C1c2ccccc2C(=O)c2c1ccc1c2N=C(c2ccc(F)cc2)CC(c2ccc(Cl)c(Cl)c2)N1 (configuration not stated) | 26.6 | 23.4 | 34 µM | 19.4 | – | – | – | 32.4 µM | – | – | – | – | – | – | – | – | – | – | –
13 | CC(=O)OCc1cc(=O)n(C)c2c3c4c(cc12)c(C)cc(=O)n4CO3 | 12.7 | 11.5 | – | 41.7 | – | 3.33 | 2.72 µM | 30.8 µM | – | 17 | – | – | – | – | – | – | – | – | –
14 | O=c1[nH]c(=O)n(COCc2ccccc2)c2ccc(Br)cc12 | > 100 | > 100 | > 100 µM | > 100 | – | > 100 | – | > 100 µM | > 100 | > 100 | – | – | – | – | – | – | – | – | –
15 | S=C1C(=Nc2ccccc2)N(c2ccccc2)/C(=N\c2ccccn2)N1c1ccccc1 | 27.5 | 26.2 | 28.8 µM | 25.5 | 25.4 | 22.4 | 30.6 µM | 24 µM | 18.5 | – | – | – | – | – | – | – | – | – | –
16 | O=C1CCC2(CC1CCSc1ccccc1)OCCO2 (configuration not stated) | > 100 | > 100 | > 100 µM | > 100 | > 100 | > 100 | > 100 µM | – | > 100 | > 100 | – | – | – | – | – | – | – | – | –
17 | O=c1[nH]c(=O)n(COCc2ccccc2)c2ccc([N+](=O)[O-])cc12 | > 100 | > 100 | > 100 µM | > 100 | > 100 | > 100 | – | > 100 µM | > 100 | > 100 | – | – | – | – | – | – | – | – | –
18 | Nc1ccccc1NC(=O)CCCCCCC(=O)Nc1ccc2c(c1)/C(=C/c1ccc[nH]1)C(=O)N2 | > 100 | > 100 | – | > 100 | > 100 | > 100 | > 100 µM | > 100 µM | – | > 100 | 3.6 | 5.59 | 49.8 | – | 6.92 | 6.2 | 4.68 | 1.45 | > 100
19 | CN(C)CCCNc1c2ccccc2nc2cccc([N+](=O)[O-])c12 | – | 0.00491 | 0.00909 µM and 0.0869 µM | – | 0.00244 | – | 0.00221 µM and 0.0136 µM | 0.0137 µM and 0.0343 µM | 0.00246 | 0.00188 | – | < 0.001 | – | 0.0203 | – | – | – | – | –
20 | O=C(NCCCCNCCCNC(=O)c1ccccc1)c1ccccc1 | > 100 | > 100 | > 100 µM | > 100 | > 100 | > 100 | – | > 100 µM | – | > 100 | – | – | – | – | – | – | – | – | –
21 | CC(=O)NC1C(OCc2ccccc2)OC(CO)C(O)C1OCC(=O)NC(C)C(=O)NC(CCC(=O)NCCCCCNc1c2ccccc2nc2cccc([N+](=O)[O-])c12)C(N)=O (configuration not stated) | 0.017 | – | 1.54 µM | < 0.0001 | < 0.0001 | – | < 0.0001 µM | < 0.0001 µM | – | < 0.0001 | – | – | 0.0124 | < 0.0001 | – | – | – | – | –
22 | COC(=O)c1nc(-c2ccc3c(n2)C(=O)C(N)=C(OC)C3=O)c(N)c(-c2ccc(OC)c(OC)c2O)c1C | – | 4.77 | – | 6.13 | – | 3.55 | 1.74 µM | 2.69 µM | – | 1.66 | – | – | – | – | – | – | – | – | –
